Tested on: cigarette smoke exposed guinea pigs
Assay: cigarette smoke-induced COPD model in guinea pigs; specific airway resistance (sRaw) by double body plethysmograph
Type: in vivo, Hartley guinea pigs
Description: The effect of the FK506 Substance on the cigarette smoke-induced COPD model in guinea pigs was confirmed in the following manner.
1. Hartley guinea pigs were exposed to cigarette smoke in a nose-only inhalation chamber for 60 min/day, 5 days/week, for 4 weeks. Animals of the negative control group were exposed to the air.
2. FK506 Substance in the form of a solid dispersion composition, which was prepared in a similar manner to that of Example 1 (above), or its placebo was given orally, after suspension in water, every day about 1 hr before the cigarette smoke exposure.
3. Specific airway resistance (sRaw) was measured as a respiratory function parameter at 0, 1, 2, 3 and 4 weeks after the start of cigarette smoke inhalation by a double body plethysmograph method (Ref. 1).
Reference • Ref. 1; Pennock B E, Cox C P, Rogers R M, Cain W A, Wells J H. A Noninvasive technique for measurement of changes in specific airway resistance. J Appl Physiol. 1979 February; 46(2):399-406. Results

Compound: C=CCC1C=C(C)CC(C)CC(OC)C2OC(O)(C(=O)C(=O)N3CCCCC3C(=O)OC(C(C)=CC3CCC(O)C(OC)C3)C(C)C(O)CC1=O)C(C)CC2OC (centres unmarked) [FK506, 17-allyl-1,14-dihydroxy-12-[2-(4-hydroxy-3-methoxycyclohexyl)-1-methylvinyl]-23,25-dimethoxy-13,19,21,27-tetramethyl-11,28-dioxa-4-azatricyclo[22.3.1.0^4,9]octacos-18-ene-2,3,10,16-tetraone]
- sRaw (FK506 0.32 mg/kg orally every day, 1 week of cigarette smoke exposure): 1.815 ± 0.073 cmH2O × mL/(mL/sec)
- sRaw (FK506 0.32 mg/kg orally every day, 2 weeks of cigarette smoke exposure): 2.089 ± 0.054 cmH2O × mL/(mL/sec)
- sRaw (FK506 0.32 mg/kg orally every day, 3 weeks of cigarette smoke exposure): 2.476 ± 0.112 cmH2O × mL/(mL/sec)
- sRaw (FK506 0.32 mg/kg orally every day, 4 weeks of cigarette smoke exposure): 2.636 ± 0.133 cmH2O × mL/(mL/sec)
- sRaw (FK506 0.32 mg/kg orally every day, pre (0 weeks), n=8): 1.892 ± 0.048 cmH2O × mL/(mL/sec)
- sRaw (FK506 1 mg/kg orally every day, 1 week of cigarette smoke exposure): 1.844 ± 0.123 cmH2O × mL/(mL/sec)
- sRaw (FK506 1 mg/kg orally every day, 2 weeks of cigarette smoke exposure): 2.012 ± 0.103 cmH2O × mL/(mL/sec)
- sRaw (FK506 1 mg/kg orally every day, 3 weeks of cigarette smoke exposure): 2.372 ± 0.167 cmH2O × mL/(mL/sec)
- sRaw (FK506 1 mg/kg orally every day, 4 weeks of cigarette smoke exposure): 2.763 ± 0.276 cmH2O × mL/(mL/sec)
- sRaw (FK506 1 mg/kg orally every day, pre (0 weeks), n=8): 1.899 ± 0.064 cmH2O × mL/(mL/sec)
- effect on decline of the respiratory function (increase of sRaw) caused by cigarette smoke (orally given, cigarette smoke exposed guinea pigs): significantly suppressed the decline of the respiratory function
